Data as given in US20240190890A1, “MK2 INHIBITORS AND USES THEREOF” (Bristol-Myers Squibb Company, priority 2022, published 2024).

Target: p38a activated, mitogen-activated protein kinase-activated protein kinase 2 (MAPKAP-K2 or MK2) enzyme (Homo sapiens (Human), UniProt P49137)
Experiment: MK2 Omnia continuous-read kinase assay for compound potency
Format: biochemical
Details: [MK-2]=0.4 nM, [ATP]=10 μM, [ST3-Sox]=10 μM; room temperature
Method in brief: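 p38a-activated MK2 (0.4 nM) with 10 μM ATP (apparent Km) and 10 μM S/T3-Sox peptide in Tris pH 7.5 buffer with MgCl2, EGTA and DTT. Fluorescence (ex360/em485) read continuously for 120 min at room temperature. IC50 from initial linear slopes; apparent kinact/KI from kobs of exponential progress-curve fits.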

Sequence of p38a activated, mitogen-activated protein kinase-activated protein kinase 2 (MAPKAP-K2 or MK2) enzyme (P49137 whole entry): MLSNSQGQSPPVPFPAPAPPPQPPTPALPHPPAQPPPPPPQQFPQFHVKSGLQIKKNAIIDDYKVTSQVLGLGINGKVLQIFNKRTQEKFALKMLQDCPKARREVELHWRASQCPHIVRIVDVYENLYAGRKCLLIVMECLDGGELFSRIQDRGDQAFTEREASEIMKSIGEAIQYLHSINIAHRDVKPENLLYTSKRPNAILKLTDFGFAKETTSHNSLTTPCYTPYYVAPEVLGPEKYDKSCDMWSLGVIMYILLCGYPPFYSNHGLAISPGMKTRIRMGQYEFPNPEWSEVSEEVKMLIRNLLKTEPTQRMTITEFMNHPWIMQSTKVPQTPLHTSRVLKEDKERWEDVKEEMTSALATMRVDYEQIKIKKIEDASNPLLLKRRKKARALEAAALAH

Row | Compound | IC50 [µM]
1 | C#Cc1cc(-c2ccc3c(ccc4sc5c(c43)NC[C@@H](C)NC5=O)n2)cc(N2CCC(F)(F)CC2)n1 [Example I-182, (R)-3-(2-(4,4-difluoropiperidin-1-yl)-6-ethynylpyridin-4-yl)-10-methyl-9,10,11,12-tetrahydro-8H-[1,4]diazepino[5′,6′:4,5]thieno[3,2-f]quinolin-8-one] | 1
2 | C[C@@H]1CNc2c(sc3ccc4nc(-c5nc(Cl)ncc5COC5(C)CCC5)ccc4c23)C(=O)N1 [Example I-27, (R)-3-(2-chloro-5-((1-methylcyclobutoxy)methyl)pyrimidin-4-yl)-10-methyl-9,10,11,12-tetrahydro-8H-[1,4]diazepino[5′,6′:4,5]thieno[3,2-f]quinolin-8-one] | 0.391
3 | C#Cc1cc(-c2ccc3c(ccc4sc5c(c43)NC[C@@H](C)NC5=O)n2)cc(CN2CCC(F)(F)CC2)n1 [Example I-124, (R)-3-(2-((4,4-difluoropiperidin-1-yl)methyl)-6-ethynylpyridin-4-yl)-10-methyl-9,10,11,12-tetrahydro-8H-[1,4]diazepino[5′,6′:4,5]thieno[3,2-f]quinolin-8-one] | 0.125
4 | C[C@@H]1CNc2c(sc3ccc4nc(-c5nc(Cl)nc6c5CN(C)CC6)ccc4c23)C(=O)N1 [Example I-192, (R)-3-(2-chloro-6-methyl-5,6,7,8-tetrahydropyrido[4,3-d]pyrimidin-4-yl)-10-methyl-9,10,11,12-tetrahydro-8H-[1,4]diazepino[5′,6′:4,5]thieno[3,2-f]quinolin-8-one] | 0.257
5 | C#Cc1cc(-c2ccc3c(ccc4sc5c(c43)NC[C@@H](C)NC5=O)n2)cc(N2CCNCC2)n1 [Example I-176, (R)-3-(2-ethynyl-6-(piperazin-1-yl)pyridin-4-yl)-10-methyl-9,10,11,12-tetrahydro-8H-[1,4]diazepino[5′,6′:4,5]thieno[3,2-f]quinolin-8-one] | 0.07
6 | C#Cc1cc(-c2ccc3c(ccc4sc5c(c43)NC[C@@H](C)NC5=O)n2)c(N(C)C)nn1 [Example I-105, (R)-3-(3-(dimethylamino)-6-ethynylpyridazin-4-yl)-10-methyl-9,10,11,12-tetrahydro-8H-[1,4]diazepino[5′,6′:4,5]thieno[3,2-f]quinolin-8-one] | 0.118
7 | C[C@@H]1CNc2c(sc3ccc4nc(-c5cc(Cl)nc(N6CCN(C)CC6)c5)ccc4c23)C(=O)N1 [Example I-94, (R)-3-(2-chloro-6-(4-methylpiperazin-1-yl)pyridin-4-yl)-10-methyl-9,10,11,12-tetrahydro-8H-[1,4]diazepino[5′,6′:4,5]thieno[3,2-f]quinolin-8-one] | 0.043
8 | C#Cc1cc(-c2ccc3c(ccc4sc5c(c43)NC[C@@H](C)NC5=O)n2)c(OCCN2CCCC2)nn1 [Example I-120, (R)-3-(6-ethynyl-3-(2-(pyrrolidin-1-yl)ethoxy)pyridazin-4-yl)-10-methyl-9,10,11,12-tetrahydro-8H-[1,4]diazepino[5′,6′:4,5]thieno[3,2-f]quinolin-8-one] | 0.045
9 | C=Cc1cc(-c2ccc3c(ccc4sc5c(c43)NC[C@@H](C)NC5=O)n2)cc(N2CCC(C(F)(F)F)CC2)n1 [Example I-202, (R)-10-methyl-3-(2-(4-(trifluoromethyl)piperidin-1-yl)-6-vinylpyridin-4-yl)-9,10,11,12-tetrahydro-8H-[1,4]diazepino[5′,6′:4,5]thieno[3,2-f]quinolin-8-one] | 0.674
10 | C[C@@H]1CNc2c(sc3ccc4nc(-c5nc(Cl)ncc5COC5COC5)ccc4c23)C(=O)N1 [Example I-20, (R)-3-(2-chloro-5-((oxetan-3-yloxy)methyl)pyrimidin-4-yl)-10-methyl-9,10,11,12-tetrahydro-8H-[1,4]diazepino[5′,6′:4,5]thieno[3,2-f]quinolin-8-one] | 0.224
11 | C#Cc1ncc(CO)c(-c2ccc3c(ccc4sc5c(c43)NC[C@@H](C)NC5=O)n2)n1 [Example I-79, (R)-3-(2-ethynyl-5-(hydroxymethyl)pyrimidin-4-yl)-10-methyl-9,10,11,12-tetrahydro-8H-[1,4]diazepino[5′,6′:4,5]thieno[3,2-f]quinolin-8-one] | 0.568
12 | C[C@@H]1CNc2c(sc3ccc4nc(-c5nc(Cl)c(C(F)(F)F)cc5F)ccc4c23)C(=O)N1 [Example I-274, (R)-3-(6-chloro-3-fluoro-5-(trifluoromethyl)pyridin-2-yl)-10-methyl-9,10,11,12-tetrahydro-8H-[1,4]diazepino[5′,6′:4,5]thieno[3,2-f]quinolin-8-one] | 0.752
13 | Cc1cnc(Cl)nc1-c1ccc2c(ccc3sc4c(c32)NC[C@@H](C)NC4=O)n1 [Example I-6, (R)-3-(2-chloro-5-methylpyrimidin-4-yl)-10-methyl-9,10,11,12-tetrahydro-8H-[1,4]diazepino[5′,6′:4,5]thieno[3,2-f]quinolin-8-one] | 0.912
14 | C=Cc1cc(-c2ccc3c(ccc4sc5c(c43)NC[C@@H](C)NC5=O)n2)c(OC(F)(F)F)cn1 [Example I-245, (R)-10-methyl-3-(5-(trifluoromethoxy)-2-vinylpyridin-4-yl)-9,10,11,12-tetrahydro-8H-[1,4]diazepino[5′,6′:4,5]thieno[3,2-f]quinolin-8-one] | 0.074
15 | (R)-10-methyl-3-(6-(4-methylpiperazin-1-yl)-2-vinylpyrimidin-4-yl)-9,10,11,12-tetrahydro-8H-[1,4]diazepino[5′,6′:4,5]thieno[3,2-f]quinolin- [Example I-18] | 0.004
16 | C[C@@H]1CNc2c(sc3ccc4nc(-c5cccc(Cl)n5)ccc4c23)C(=O)N1 [Example I-52, (R)-3-(6-chloropyridin-2-yl)-10-methyl-9,10,11,12-tetrahydro-8H-[1,4]diazepino[5′,6′:4,5]thieno[3,2-f]quinolin-8-one] | 0.116
17 | C[C@@H]1CNc2c(sc3ccc4nc(-c5cc(C#CC(C)(C)N)nc(Cl)n5)ccc4c23)C(=O)N1 [Example I-63, (R)-3-(6-(3-amino-3-methylbut-1-yn-1-yl)-2-chloropyrimidin-4-yl)-10-methyl-9,10,11,12-tetrahydro-8H-[1,4]diazepino[5′,6′:4,5]thieno[3,2-f]quinolin-8-one] | 0.145
18 | C[C@@H]1CNc2c(sc3ccc4nc(-c5cc(Cl)nc(N6CCN(C)CC6)n5)ccc4c23)C(=O)N1 [Example I-17, (R)-3-(6-chloro-2-(4-methylpiperazin-1-yl)pyrimidin-4-yl)-10-methyl-9,10,11,12-tetrahydro-8H-[1,4]diazepino[5′,6′:4,5]thieno[3,2-f]quinolin-8-one] | 0.137
19 | (R)-3-(2-chloro-5-(ethoxymethyl)pyrimidin-4-yl)-10-methyl-9,10,11,12-tetrahydro-8H-[1,4]diazepino[5′,6′:4,5]thieno[3,2-f]quinolin- [Example I-3] | 0.107

Continued by falling IC50, values first:

Row | IC50 [µM] | Compound
20 | 0.04 | C/C=C/c1cc(-c2ccc3c(ccc4sc5c(c43)NC[C@@H](C)NC5=O)n2)nc(COCC)n1 [Example I-35, (R,E)-3-(2-(ethoxymethyl)-6-(prop-1-en-1-yl)pyrimidin-4-yl)-10-methyl-9,10,11,12-tetrahydro-8H-[1,4]diazepino[5′,6′:4,5]thieno[3,2-f]quinolin-8-one]
21 | 0.022 | C#Cc1cc(-c2ccc3c(ccc4sc5c(c43)NC[C@@H](C)NC5=O)n2)cc(C2CCN(C)CC2)n1 [Example I-107, (R)-3-(2-ethynyl-6-(1-methylpiperidin-4-yl)pyridin-4-yl)-10-methyl-9,10,11,12-tetrahydro-8H-[1,4]diazepino[5′,6′:4,5]thieno[3,2-f]quinolin-8-one]
22 | 0.019 | C=C(c1cncc(-c2ccc3c(ccc4sc5c(c43)NC[C@@H](C)NC5=O)n2)n1)C(F)(F)F [Example I-225, (R)-10-methyl-3-(6-(3,3,3-trifluoroprop-1-en-2-yl)pyrazin-2-yl)-9,10,11,12-tetrahydro-8H-[1,4]diazepino[5′,6′:4,5]thieno[3,2-f]quinolin-8-one]
23 | 0.013 | [2H]C([2H])([2H])N1CCN(c2cc(-c3ccc4c(ccc5sc6c(c54)NC[C@@H](C)NC6=O)n3)cc(C=C)n2)CC1 [Example I-171, (R)-10-methyl-3-(2-(4-(methyl-d3)piperazin-1-yl)-6-vinylpyridin-4-yl)-9,10,11,12-tetrahydro-8H-[1,4]diazepino[5′,6′:4,5]thieno[3,2-f]quinolin-8-one]
24 | 0.012 | C/C=C\c1cc(-c2ccc3c(ccc4sc5c(c43)NC[C@@H](C)NC5=O)n2)nc(COCC)n1 [Example I-36, (R,Z)-3-(2-(ethoxymethyl)-6-(prop-1-en-1-yl)pyrimidin-4-yl)-10-methyl-9,10,11,12-tetrahydro-8H-[1,4]diazepino[5′,6′:4,5]thieno[3,2-f]quinolin-8-one]
25 | 0.012 | C[C@@H]1CNc2c(sc3ccc4nc(-c5cc(Cl)nc(COC6CCNCC6)n5)ccc4c23)C(=O)N1 [Example I-14, (R)-3-(6-chloro-2-((piperidin-4-yloxy)methyl)pyrimidin-4-yl)-10-methyl-9,10,11,12-tetrahydro-8H-[1,4]diazepino[5′,6′:4,5]thieno[3,2-f]quinolin-8-one]
26 | 0.002 | C#Cc1cc(-c2ccc3c(ccc4sc5c(c43)NC[C@@H](C)NC5=O)n2)c(C#N)cn1 [Example I-162, (R)-6-ethynyl-4-(10-methyl-8-oxo-9,10,11,12-tetrahydro-8H-[1,4]diazepino[5′,6′:4,5]thieno[3,2-f]quinolin-3-yl)nicotinonitrile]
27 | 0.002 | C=Cc1nc(C)nn1-c1ccc2c(ccc3sc4c(c32)NC[C@@H](C)NC4=O)n1 [Example I-224, (R)-10-methyl-3-(3-methyl-5-vinyl-1H-1,2,4-triazol-1-yl)-9,10,11,12-tetrahydro-8H-[1,4]diazepino[5′,6′:4,5]thieno[3,2-f]quinolin-8-one]
28 | 0.002 | C=Cc1cc(-c2ccc3c(ccc4sc5c(c43)NC[C@@H](C)NC5=O)n2)c(C#N)cn1 [Example I-161, (R)-4-(10-methyl-8-oxo-9,10,11,12-tetrahydro-8H-[1,4]diazepino[5′,6′:4,5]thieno[3,2-f]quinolin-3-yl)-6-vinylnicotinonitrile]
